Test results published in patent US6372769B1 (priority 1999, dated 2002).
“And” between values parts separate entries of the source, which are not always exact repeats. Equal values may be shown once.

How the values were obtained:
Details in all cases: in vivo
[1] = test system: Erysiphe graminis f. sp. tritici
[2] = test system: Puccinia recondita f. sp. tritici
Pyricularia oryzae = test system: Pyricularia oryzae
Sphaerotheca fulginea = test system: Sphaerotheca fulginea
Septoria nodorum = test system: Septoria nodorum
Plasmopara viticola = test system: Plasmopara viticola

Compound	percent disease control, Wheat Powdery Mildew (WPM) [1]	percent disease control, Wheat Leaf Rust (WLR) [2]	plant damage (necrosis / death of plant) in RB test (Pyricularia oryzae)	percent disease control, Cucumber Powdery Mildew (CPM) (Sphaerotheca fulginea)	plant damage (necrosis / death of plant) in SNW test (Septoria nodorum)	percent disease control, Grape Downy Mildew (GDM) (Plasmopara viticola)	percent disease control, Rice Blast (RB) (Pyricularia oryzae)	percent disease control, Septoria on Wheat (SNW) (Septoria nodorum)
O=C(Nc1c(Cl)c(Cl)c(Cl)c(Cl)c1Cl)c1sc(C(F)(F)F)nc1C(F)(F)F [Compound 2]	80% and 75% and 50%	100% and 99% and 90%	–	–	–	–	–	–
O=C(Nc1c(Br)cc(Br)cc1Br)c1sc(C(F)(F)F)nc1C(F)(F)F [Compound 3]	85% and 80% and 50%	99% and 90% and 85%	–	–	–	–	–	–
O=C(Nc1cc(F)c(F)c(F)c1F)c1sc(C(F)(F)F)nc1C(F)(F)F [Compound 4]	–	–	50/5	0% and 0/5%	—/5	–	–	–
O=C(Nc1c(Br)cc(OC(F)(F)F)cc1Br)c1sc(C(F)(F)F)nc1C(F)(F)F [Compound 5]	95% and 80%	100% and 95%	–	–	–	0%	95% and 90%	80% and 75%
